Experimental data published in US20240408216A1, “PROTEIN INHIBITOR OR DEGRADING AGENT, PHARMACEUTICAL COMPOSITION CONTAINING SAME AND PHARMACEUTICAL USE” (JING MEDICINE TECHNOLOGY (SHANGHAI) LTD., priority 2021, published 2024).
Like-named read-outs stand apart in the source and are kept apart here.

How the values were obtained:
human EGFR-LTC = target: T1, human EGFR-LTC (Homo sapiens, UniProt P00533, C797S/L858R/T790M); assay: EGFR protein abundance assay (Western blotting), EGFR-LTC; assay type: cell-based; conditions: 24 h, Western blot; for DC50 / EGFR-LTC Dmax: Ba/F3 cells expressing human EGFR-LTC; for Dmax: BaF3, Ba/F3 cells expressing human EGFR-LTC
T1 construct: expressed in transfected cells
Protocol: (§1) Mouse Ba/F3 cells stably expressing human EGFR-DTC, EGFR-LTC, or EGFR-DC were transferred to Petri dishes with RPMI-1640 medium (Gibco, Product No. 11875093) containing 10% fetal bovine serum (FBS, Biological Industries, Product No. 04-001-1A) and 0.1% penicillin/streptomycin (P/S) and incubated in an aseptic incubator at 37° C., 95% relative humidity, and 5% CO2. Cells at the logarithmic growth phase were taken and seeded at a density of 50000 cells/well in 12-well plates (Corning, Product No. 3513) containing 1 mL of medium per well. After 24 h, the compounds disclosed herein with different concentrations were added to the wells at a final DMSO concentration of 0.1%. After 24 h, cells were lysed in SDS lysis buffer (1.45 g of SDS, 0.2 g of Tris base, 6 mL of glycerol, 20 mg of bromophenol blue, 310 mg DTT; brought to 40 mL with d2H2O), and the EGFR levels were detected and analyzed by Western Blotting (immunoblotting) using standard molecular biological techniques. Cell lysates were boiled at 95° C. for 8 min, mixed and centrifuged. The total cell proteins in the lysates were subjected to SDS-PAGE (GenScript, Product No. M00654), transferred to NC membranes (GE, Product No. 1060002) by blotting, incubated in a blocking buffer (TAKARA, Product No. T7131A) at room temperature for 60 min, and co-incubated overnight at 4° C. with the following primary antibodies: anti-EGFR (#4267S, 1:1000), anti-phoso-EGFR (#3777S, 1:1000), anti-GAPDH (#5174S, 1:10000), anti-Actin (#5125 S, 1:10000) (all purchased from Cell Signaling Technology). The samples were washed three times with TBST at room temperature, each for 10 min, and then incubated for 60 minutes in a blocking buffer containing a secondary antibody (#7074S, 1:10000, purchased from Cell Signaling Technology) at room temperature. The samples were washed three times with TBST at room temperature, each for 10 min. Chemiluminescent substrates were added, and an Azure c300 system was used for imaging.

BaF3 (EGFR L858R/C797S) = BaF3 (EGFR L858R/C797S) (Homo sapiens, UniProt P00533, C797S/L858R, cells depend on it); assay: Cell proliferation IC50 assay (Cell Titer GLO), BaF3 LC cells; assay type: cell-based, mouse; conditions: Table 7, 72 h
Protocol: (§2) IC50 of compounds in the present invention was determined by Cell Titer GLO reagent from Promega. The procedures are as follows:
(§3) Tumor cells were cultured in specified medium in an incubator at 37° C. and 5% CO2. The cells were passaged periodically. Cells at the logarithmic growth phase were collected for plating at a density of 2000-4000 cells/well. The next day, the compounds of the present invention were serially diluted and added to the cells, with DMSO being the negative control and the culture media without cells being the blank control. The plate was incubated in the incubator for 72 h. The cell viability assay was performed by adding the detection reagents to the cell culture media according to Cell Titer GLO reagent instructions and detecting luminescent signals on an EnVision microplate reader (PerkinElmer).
(§4) Inhibition of cell growth by the compounds of the present invention was plotted by Prism Graphpad software for statistically calculating the IC50 of the compound of the present invention.

human EGFR-DTC = assay: EGFR protein abundance assay (Western blotting), EGFR-DTC; assay type: cell-based; conditions: Ba/F3 cells expressing human EGFR-DTC, 24 h, Western blot
Protocol: as §1

[1] = tested on: BaF3 (EGFR Del19/T790M/C797S); assay: Cell proliferation IC50 assay (Cell Titer GLO), BaF3 DTC cells; assay type: cell-based; conditions: Mus musculus, Ba/F3 EGFR-Del19/T790M/C797S
Outline: (§5)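 Growth inhibition is measured over 72 h of continuous compound treatment in cells seeded at 2000-4000 per well.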

BaF3 (EGFR WT) = assay: Cell proliferation IC50 assay (Cell Titer GLO), BaF3 WT cells; assay type: cell-based; conditions: Mus musculus, Ba/F3 EGFR, 72 h
Outline: as §5

[2] = tested on: BaF3 (EGFR L858R/T790M/C797S); assay: Cell proliferation IC50 assay (Cell Titer GLO), BaF3 LTC cells; assay type: cell-based; conditions: Mus musculus, Ba/F3 EGFR
Outline: as §5

BaF3 (EGFR Del19/C797S) = target: T2, BaF3 (EGFR Del19/C797S) (Homo sapiens, UniProt P00533, C797S, cells depend on it, form not given); assay: Cell proliferation IC50 assay (Cell Titer GLO), BaF3 DC cells; assay type: cell-based, mouse; conditions: Table 7, 72 h
T2 construct: BaF3 (EGFR Del19/C797S)|DC|RPMI1640 + 10% FBS
Outline: as §5

human EGFR-DC = assay: EGFR protein abundance assay (Western blotting), EGFR-DC; assay type: cell-based; conditions: Ba/F3 cells expressing human EGFR-DC, 24 h, Western blot
Protocol: as §1

BaF3 (EGFR Del19) = BaF3 (EGFR Del19) (Homo sapiens, UniProt P00533, cells depend on it, form not given); assay: Cell proliferation IC50 assay (Cell Titer GLO), BaF3 D cells; assay type: cell-based, mouse; conditions: Table 7, 72 h
Protocol: as §2, §3, §4

BaF3 (EGFR L858R) = BaF3 (EGFR L858R) (Homo sapiens, UniProt P00533, L858R, cells depend on it); assay: Cell proliferation IC50 assay (Cell Titer GLO), BaF3 L cells; assay type: cell-based, mouse; conditions: Table 7, 72 h
Protocol: as §2, §3, §4

LT = assay: Cell proliferation IC50 assay (Cell Titer GLO), LT cells; assay type: cell-based; conditions: Mus musculus; Table 7; LT cells (BaF3 with EGFR mutant), 72 h
Protocol: as §2, §3, §4

DT = assay: Cell proliferation IC50 assay (Cell Titer GLO), DT cells; assay type: cell-based; conditions: Mus musculus; Table 7; DT cells (BaF3 with EGFR mutant), 72 h
Protocol: as §2, §3, §4

A431 = assay: Cell proliferation IC50 assay (Cell Titer GLO), A431 cells; assay type: cell-based; conditions: Homo sapiens, A-431, A431, 72 h, read-out: A431 IC50
Outline: as §5

BaF3 patent = assay: Cell proliferation IC50 assay (Cell Titer GLO), BaF3 parental cells; assay type: cell-based; conditions: Mus musculus, Table 5, 10 ng/ml mIL3, 72 h
Protocol: as §2, §3, §4

BaF3 (EGFR Del19), sequence (P00533 with tags, fused parts or gaps DEL746-750): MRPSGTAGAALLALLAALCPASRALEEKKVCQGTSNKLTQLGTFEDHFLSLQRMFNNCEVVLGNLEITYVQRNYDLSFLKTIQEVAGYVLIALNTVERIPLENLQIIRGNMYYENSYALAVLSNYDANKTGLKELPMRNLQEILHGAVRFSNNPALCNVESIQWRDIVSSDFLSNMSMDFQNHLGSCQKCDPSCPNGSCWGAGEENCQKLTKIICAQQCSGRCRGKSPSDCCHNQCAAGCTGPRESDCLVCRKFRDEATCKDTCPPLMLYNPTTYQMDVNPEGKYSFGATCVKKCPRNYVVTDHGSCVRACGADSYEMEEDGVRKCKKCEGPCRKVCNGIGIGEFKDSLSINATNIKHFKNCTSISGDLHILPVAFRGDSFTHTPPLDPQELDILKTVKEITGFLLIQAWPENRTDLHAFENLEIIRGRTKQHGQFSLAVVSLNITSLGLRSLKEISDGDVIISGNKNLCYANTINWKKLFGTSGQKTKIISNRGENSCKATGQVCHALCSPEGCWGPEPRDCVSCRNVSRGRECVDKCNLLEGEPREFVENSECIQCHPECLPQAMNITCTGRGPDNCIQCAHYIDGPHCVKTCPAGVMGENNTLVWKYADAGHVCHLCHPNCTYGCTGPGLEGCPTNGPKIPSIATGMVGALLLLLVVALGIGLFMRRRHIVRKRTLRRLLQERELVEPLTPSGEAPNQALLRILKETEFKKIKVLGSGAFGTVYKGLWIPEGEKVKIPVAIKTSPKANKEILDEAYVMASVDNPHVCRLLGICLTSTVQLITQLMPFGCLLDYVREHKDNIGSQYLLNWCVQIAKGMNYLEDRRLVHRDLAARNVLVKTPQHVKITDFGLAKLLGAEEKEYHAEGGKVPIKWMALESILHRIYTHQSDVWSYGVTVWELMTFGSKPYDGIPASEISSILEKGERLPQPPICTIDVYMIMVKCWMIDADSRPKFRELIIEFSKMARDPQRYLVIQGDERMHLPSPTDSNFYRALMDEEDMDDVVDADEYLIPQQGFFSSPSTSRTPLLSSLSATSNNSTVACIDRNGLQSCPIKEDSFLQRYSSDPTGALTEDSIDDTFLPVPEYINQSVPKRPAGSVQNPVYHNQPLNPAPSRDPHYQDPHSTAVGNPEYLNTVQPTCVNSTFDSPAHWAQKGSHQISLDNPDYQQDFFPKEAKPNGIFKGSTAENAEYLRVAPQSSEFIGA
T1 sequence (P00533 25-1210 T790M/C797S/L858R): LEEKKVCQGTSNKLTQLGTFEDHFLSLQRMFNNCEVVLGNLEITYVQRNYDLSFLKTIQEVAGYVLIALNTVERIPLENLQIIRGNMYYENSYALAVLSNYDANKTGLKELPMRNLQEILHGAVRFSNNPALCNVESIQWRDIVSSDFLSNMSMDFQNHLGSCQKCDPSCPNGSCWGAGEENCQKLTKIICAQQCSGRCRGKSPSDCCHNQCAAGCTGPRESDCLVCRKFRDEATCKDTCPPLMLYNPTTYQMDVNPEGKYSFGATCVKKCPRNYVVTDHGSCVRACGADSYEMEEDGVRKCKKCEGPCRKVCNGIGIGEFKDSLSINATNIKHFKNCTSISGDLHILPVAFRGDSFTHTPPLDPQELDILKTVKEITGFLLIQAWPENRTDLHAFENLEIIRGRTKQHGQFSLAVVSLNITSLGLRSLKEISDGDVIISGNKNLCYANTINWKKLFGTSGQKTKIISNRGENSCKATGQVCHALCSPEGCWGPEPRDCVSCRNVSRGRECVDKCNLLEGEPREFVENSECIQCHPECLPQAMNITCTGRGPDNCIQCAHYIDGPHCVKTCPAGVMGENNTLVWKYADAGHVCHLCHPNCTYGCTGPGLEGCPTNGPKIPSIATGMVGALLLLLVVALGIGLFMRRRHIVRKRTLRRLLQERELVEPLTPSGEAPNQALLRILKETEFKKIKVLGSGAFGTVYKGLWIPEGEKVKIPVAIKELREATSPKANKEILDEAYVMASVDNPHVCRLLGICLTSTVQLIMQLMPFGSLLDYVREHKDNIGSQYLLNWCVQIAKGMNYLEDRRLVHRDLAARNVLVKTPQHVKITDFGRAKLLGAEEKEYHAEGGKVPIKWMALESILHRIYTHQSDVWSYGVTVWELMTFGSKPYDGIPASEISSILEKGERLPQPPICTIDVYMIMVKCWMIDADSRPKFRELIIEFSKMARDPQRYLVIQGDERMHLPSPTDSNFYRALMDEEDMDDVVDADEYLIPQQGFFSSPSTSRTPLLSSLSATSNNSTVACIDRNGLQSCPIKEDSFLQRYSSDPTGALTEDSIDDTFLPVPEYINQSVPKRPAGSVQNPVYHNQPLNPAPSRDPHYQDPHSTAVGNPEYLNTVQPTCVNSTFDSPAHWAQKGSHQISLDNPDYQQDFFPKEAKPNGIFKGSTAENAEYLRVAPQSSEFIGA
T2 sequence (P00533 with tags, fused parts or gaps DEL746-750/C797S, form open): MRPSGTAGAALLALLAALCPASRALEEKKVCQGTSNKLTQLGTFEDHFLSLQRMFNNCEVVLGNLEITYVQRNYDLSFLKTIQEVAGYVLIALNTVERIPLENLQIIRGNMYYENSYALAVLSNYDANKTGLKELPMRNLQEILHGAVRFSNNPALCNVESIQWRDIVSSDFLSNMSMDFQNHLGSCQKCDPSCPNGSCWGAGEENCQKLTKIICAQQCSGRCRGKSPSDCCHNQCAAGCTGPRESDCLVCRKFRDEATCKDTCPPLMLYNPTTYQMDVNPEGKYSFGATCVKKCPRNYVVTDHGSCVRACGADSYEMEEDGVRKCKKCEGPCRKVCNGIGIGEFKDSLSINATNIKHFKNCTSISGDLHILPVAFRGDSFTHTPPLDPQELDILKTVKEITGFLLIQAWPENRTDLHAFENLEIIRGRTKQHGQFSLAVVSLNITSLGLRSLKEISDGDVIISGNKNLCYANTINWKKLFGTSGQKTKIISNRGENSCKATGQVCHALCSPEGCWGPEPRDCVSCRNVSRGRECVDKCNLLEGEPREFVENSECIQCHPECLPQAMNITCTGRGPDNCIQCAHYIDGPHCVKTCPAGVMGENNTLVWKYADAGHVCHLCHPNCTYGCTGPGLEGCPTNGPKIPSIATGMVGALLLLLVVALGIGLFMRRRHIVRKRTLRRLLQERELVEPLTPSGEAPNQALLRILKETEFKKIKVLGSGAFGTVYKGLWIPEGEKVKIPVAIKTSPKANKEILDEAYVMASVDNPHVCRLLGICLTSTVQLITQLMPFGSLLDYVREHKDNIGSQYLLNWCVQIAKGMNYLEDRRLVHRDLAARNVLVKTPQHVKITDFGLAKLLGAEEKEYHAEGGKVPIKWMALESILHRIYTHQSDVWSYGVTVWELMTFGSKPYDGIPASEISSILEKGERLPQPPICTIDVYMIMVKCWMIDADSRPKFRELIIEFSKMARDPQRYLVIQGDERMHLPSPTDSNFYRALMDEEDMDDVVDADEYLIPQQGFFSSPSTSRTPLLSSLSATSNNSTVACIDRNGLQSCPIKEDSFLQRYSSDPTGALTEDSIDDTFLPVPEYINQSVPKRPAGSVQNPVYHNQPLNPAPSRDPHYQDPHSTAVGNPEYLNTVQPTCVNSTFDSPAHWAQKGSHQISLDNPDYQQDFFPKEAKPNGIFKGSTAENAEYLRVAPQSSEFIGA
BaF3 (EGFR L858R/C797S), sequence (P00533 whole entry C797S/L858R): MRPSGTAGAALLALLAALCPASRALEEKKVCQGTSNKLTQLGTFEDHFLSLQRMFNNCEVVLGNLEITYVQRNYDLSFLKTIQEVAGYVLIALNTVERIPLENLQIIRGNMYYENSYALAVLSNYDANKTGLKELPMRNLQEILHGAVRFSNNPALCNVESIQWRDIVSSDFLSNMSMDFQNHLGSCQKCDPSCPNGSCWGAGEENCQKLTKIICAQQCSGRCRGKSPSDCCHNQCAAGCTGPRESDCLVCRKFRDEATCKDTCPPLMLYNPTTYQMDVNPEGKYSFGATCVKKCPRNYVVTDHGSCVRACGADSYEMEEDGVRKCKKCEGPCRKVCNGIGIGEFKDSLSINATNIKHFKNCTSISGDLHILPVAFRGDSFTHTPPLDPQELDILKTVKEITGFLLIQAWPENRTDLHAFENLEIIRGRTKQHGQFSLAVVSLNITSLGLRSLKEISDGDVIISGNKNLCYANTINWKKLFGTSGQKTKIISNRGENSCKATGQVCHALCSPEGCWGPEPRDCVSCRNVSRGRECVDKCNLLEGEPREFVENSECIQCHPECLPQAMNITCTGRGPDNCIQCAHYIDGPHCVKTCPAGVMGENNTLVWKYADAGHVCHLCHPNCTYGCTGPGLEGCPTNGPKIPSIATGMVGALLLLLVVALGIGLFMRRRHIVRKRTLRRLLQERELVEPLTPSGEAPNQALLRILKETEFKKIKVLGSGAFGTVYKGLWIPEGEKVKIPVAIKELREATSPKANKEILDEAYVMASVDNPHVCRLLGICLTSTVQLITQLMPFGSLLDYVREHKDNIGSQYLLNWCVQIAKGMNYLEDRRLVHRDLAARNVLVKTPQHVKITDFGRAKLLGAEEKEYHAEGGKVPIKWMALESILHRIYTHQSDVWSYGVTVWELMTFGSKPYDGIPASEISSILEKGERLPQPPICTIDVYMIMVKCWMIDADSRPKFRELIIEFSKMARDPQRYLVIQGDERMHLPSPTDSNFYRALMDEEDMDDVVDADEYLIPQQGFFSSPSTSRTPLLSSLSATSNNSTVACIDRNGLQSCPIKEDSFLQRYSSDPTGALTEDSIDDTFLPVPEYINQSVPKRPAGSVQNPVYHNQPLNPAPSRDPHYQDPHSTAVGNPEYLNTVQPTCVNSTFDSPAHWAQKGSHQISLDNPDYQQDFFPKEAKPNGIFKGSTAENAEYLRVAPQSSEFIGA

SMILES | DC50 (human EGFR-LTC) | GI50 (BaF3 (EGFR L858R/C797S)) | DC50 (human EGFR-DTC) | EGFR-DTC Dmax (human EGFR-DTC) | IC50 (BaF3 (EGFR Del19/C797S)) | GI50 (BaF3 (EGFR Del19)) | GI50 (BaF3 (EGFR L858R)) | IC50 (LT) | IC50 (DT) | IC50 ([1]; Table 5, 72 h) | IC50 (BaF3 patent) | IC50 (BaF3 (EGFR WT); Table 5, 10 ng/ml EGF) | IC50 ([2]; Table 5, 72 h) | IC50 (A431; Table 5) | also measured
CCc1cc(Nc2ncc(Cl)c(Nc3ccccc3P(C)(C)=O)n2)c(OC)cc1N1CCC(N2CCN(CCOc3cccc4c3CN(C3CCC(=O)NC3=O)C4=O)CC2)CC1 (stereo not drawn) [Example E95] | 2.13 nM | 16.9 nM | 3.02 nM | 91% | 1.3 nM | 0.8 nM | 6.6 nM | 3.5 nM | 4 nM | – | – | – | – | – | Dmax (human EGFR-LTC): 94%; IC50 ([1]; Table 6, 72 h): 5.37 nM; IC50 (BaF3 (EGFR WT); Table 6, 10 ng/ml EGF): ≥ 1820 nM; IC50 ([2]; Table 6, 72 h): 48.4 nM; DC50 (human EGFR-DC): 10.1 nM; EGFR-DC Dmax (human EGFR-DC): 98%; IC50 (A431; Table 6): 1730 nM
CCc1cc(Nc2ncc(Cl)c(Nc3ccccc3P(C)(C)=O)n2)c(OC)cc1N1CCC2(CCN(CCCC#Cc3cccc4c3CN(C3CCC(=O)NC3=O)C4=O)CC2)CC1 (stereo not drawn) [Example E15] | – | 54.4 nM | – | – | 9.1 nM | 5.3 nM | 20.1 nM | 20.7 nM | 13.7 nM | 10.6 nM | > 4000 nM | > 4000 nM | 120 nM | > 4000 nM | –
COc1cc(N2CCC(N3CCN(CCC#Cc4cccc5c4CN(C4CCC(=O)NC4=O)C5=O)CC3)CC2)ccc1Nc1ncc(Cl)c(Nc2ccccc2P(C)(C)=O)n1 (stereo not drawn) [Example C-2, reference compound] | – | – | – | – | – | – | – | 20.9 nM | 13.3 nM | – | 73.8 nM | – | – | – | –
COc1cc(N2CCC(N3CCN(CCC#Cc4cccc5c4CN(C4CCC(=O)NC4=O)C5=O)CC3)CC2)c(C2CC2)cc1Nc1ncc(Cl)c(Nc2ccccc2P(C)(C)=O)n1 (stereo not drawn) [Example E13] | – | 128 nM | – | – | 20.4 nM | 6.1 nM | 23.5 nM | 16.5 nM | 7.7 nM | 19.6 nM | > 4000 nM | > 4000 nM | 66.5 nM | > 4000 nM | –
CCc1cc(Nc2ncc(Cl)c(Nc3ccccc3P(C)(C)=O)n2)c(OC)cc1N1CCC(N2CCN(CCC#Cc3cccc4c3CN(C3CCC(=O)NC3=O)C4=O)CC2)CC1 (single isomer, unassigned) [Example E4] | 6.26 nM | 23 nM | 2.27 nM | 96% | 4.8 nM | 2.1 nM | 6.7 nM | 7.4 nM | 5.5 nM | 6.6 nM | > 4000 nM | > 4000 nM | 37.6 nM | 2060 nM | Dmax (human EGFR-LTC): 91%; DC50 (human EGFR-DC): 18.6 nM; EGFR-DC Dmax (human EGFR-DC): 75%
CCc1cc(Nc2ncc(Cl)c(Nc3ccccc3P(C)(C)=O)n2)c(OC)cc1N1CCC(N2CCN(CCCCCc3ccc4c(c3F)CN(C3CCC(=O)NC3=O)C4=O)CC2)CC1 (stereo not drawn) [Example E20] | – | 19.4 nM | – | – | 2.7 nM | 1.7 nM | 5.2 nM | 10 nM | 7 nM | 5.6 nM | > 4000 nM | > 4000 nM | 54.3 nM | 1270 nM | –
CCc1cc(Nc2ncc(Cl)c(Nc3ccccc3P(C)(C)=O)n2)c(OC)cc1N1CCC(N2CCN(CCC#Cc3cccc4c3CN(C3CCC(=O)NC3=O)C4=O)CC2)CC1 (single isomer, unassigned) [Example E6] | 10.1 nM | – | 3.37 nM | 70% | – | – | – | – | – | – | – | – | – | – | EGFR-LTC Dmax (human EGFR-LTC): 89%
COc1cc(N2CCC3(CCN(CCCC#Cc4cccc5c4CN(C4CCC(=O)NC4=O)C5=O)CC3)CC2)c(C)cc1Nc1ncc(Br)c(Nc2ccc3ccccc3c2P(C)(C)=O)n1 (stereo not drawn) [Example E12] | – | 106 nM | – | – | 16.2 nM | 7.8 nM | 37.8 nM | 36 nM | 24.8 nM | 18.3 nM | > 4000 nM | > 4000 nM | 111 nM | > 4000 nM | –
CCc1cc(Nc2ncc(Cl)c(Nc3ccccc3P(C)(C)=O)n2)c(OC)cc1N1CCC(N2CCN(CCC#Cc3cccc4c3CN(C3CCC(=O)NC3=O)C4=O)CC2)CC1 (single isomer, unassigned) [Example E5] | < 1 nM | – | 9.31 nM | 86% | – | – | – | – | – | – | – | – | – | – | EGFR-LTC Dmax (human EGFR-LTC): 93%
CCc1cc(Nc2ncc(-c3cnn(C)c3)c(Nc3ccccc3P(C)(C)=O)n2)c(OC)cc1N1CCC(N2CCN(CCOc3cccc4c3CN(C3CCC(=O)NC3=O)C4=O)CC2)CC1 (stereo not drawn) [Example E158] | – | 1.3 nM | – | – | 0.1 nM | 0.2 nM | 0.6 nM | 69.1 nM | 15.3 nM | – | – | – | – | – | IC50 ([1]; Table 6, 72 h): 33 nM; IC50 (BaF3 (EGFR WT); Table 6, 10 ng/ml EGF): 730 nM; IC50 ([2]; Table 6, 72 h): 2760 nM; IC50 (A431; Table 6): ≥ 1200 nM
CCc1cc(Nc2ncc(Cl)c(Nc3ccccc3P(C)(C)=O)n2)c(OC)cc1N1CCC(N2Cc3ccc(Oc4cccc5c4CN(C4CCC(=O)NC4=O)C5=O)cc3C2)CC1 (stereo not drawn) [Example E120] | 13.1 nM | 33.9 nM | 7.17 nM | 86% | 3.2 nM | 1.8 nM | 16.6 nM | 9.3 nM | 7.8 nM | – | – | – | – | – | Dmax (human EGFR-LTC): 85%; IC50 ([1]; Table 6, 72 h): 14.7 nM; IC50 (BaF3 (EGFR WT); Table 6, 10 ng/ml EGF): ≥ 2160 nM; IC50 ([2]; Table 6, 72 h): 115 nM; IC50 (A431; Table 6): ≥ 1560 nM
COc1cc(N2CCC(N3CCN(CCCCCc4ccc5c(c4)CN(C4CCC(=O)NC4=O)C5=O)CC3)CC2)ccc1Nc1ncc(Cl)c(Nc2ccccc2P(C)(C)=O)n1 (stereo not drawn) [Example C-5, reference compound] | – | – | – | – | – | – | – | – | – | 22.5 nM | 570 nM | 1630 nM | 103 nM | 1230 nM | –
